Experiments:
[1] = target: GDP-bound NRAS wild-type protein (Homo sapiens, UniProt P01111); test: Binding to NRAS by surface plasmon resonance (SPR), Single Cycle Kinetics; conditions: SPR; KD ratio class
[2] = target: GDP-bound HRAS wild-type protein (Homo sapiens, UniProt P01112); test: Binding to HRAS by surface plasmon resonance (SPR), Single Cycle Kinetics; conditions: SPR; KD ratio class
[3] = tested on: human lung cancer strain NCI-H441; test: cells; conditions: NCI-H441, 96 h, read-out: NCI-H441 IC50 (nM)

Chain of GDP-bound HRAS wild-type protein (P01112 whole entry): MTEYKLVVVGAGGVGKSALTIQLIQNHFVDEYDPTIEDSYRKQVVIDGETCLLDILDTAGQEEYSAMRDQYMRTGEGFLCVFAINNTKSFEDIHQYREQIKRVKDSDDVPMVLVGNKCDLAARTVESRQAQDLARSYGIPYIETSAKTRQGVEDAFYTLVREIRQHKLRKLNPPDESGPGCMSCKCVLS
Chain of GDP-bound NRAS wild-type protein (P01111 whole entry): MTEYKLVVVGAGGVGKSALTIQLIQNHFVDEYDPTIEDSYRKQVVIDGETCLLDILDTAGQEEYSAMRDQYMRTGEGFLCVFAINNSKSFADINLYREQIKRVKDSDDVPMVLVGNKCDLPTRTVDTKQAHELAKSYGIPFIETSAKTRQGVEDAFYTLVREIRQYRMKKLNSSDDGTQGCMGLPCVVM

| IC50 [3] [nM] | SMILES | NRAS/KRAS (ratio of KD value for GDP-bound NRAS wild-type protein to KD value for KRAS) [1] | HRAS/KRAS (ratio of KD value for GDP-bound HRAS wild-type protein to KD value for KRAS) [2] |
| --- | --- | --- | --- |
| 2.3 | CC[C@H](C)[C@@H]1NC(=O)[C@H](CC(C)C)N(C)C(=O)C[C@@H](C(=O)N(C)C)N(C)C(=O)[C@H](C2CCCC2)N(C)C(=O)C2(CC(C)(C)C2)NC(=O)[C@@H]2C[C@@H](F)CN2C(=O)[C@H](CCc2cc(F)c(C(F)(F)F)c(F)c2)NC(=O)CN(C)C(=O)[C@H](Cc2ccc(C(F)(F)F)cc2)N2CC/C=C\C[C@@H](C2=O)N(C)C(=O)CN(C)C1=O [PP1566] | A (a compound having 10 or more and less than 20 is denoted as A) | A (a compound having 10 or more and less than 20 is denoted as A) |
| 2.2 | CCO[C@@H]1C[C@H]2C(=O)NC3(CC(C)(C)C3)C(=O)N(C)[C@@H](C3CCCC3)C(=O)N(C)[C@H](C(=O)N(C)C)CC(=O)N(C)[C@@H](CC3CC3)C(=O)N[C@@H]([C@@H](C)CC)C(=O)N(C)CC(=O)N(C)[C@H]3C/C=C\CCN(C3=O)[C@@H](Cc3ccc(C(F)(F)F)cc3)C(=O)N(C)CC(=O)N[C@@H](CCc3cc(F)c(C(F)(F)F)c(F)c3)C(=O)N2C1 [PP1568] | A (a compound having 10 or more and less than 20 is denoted as A) | A (a compound having 10 or more and less than 20 is denoted as A) |
| 2.8 | CCCOC[C@H]1C(=O)N[C@@H]([C@@H](C)CC)C(=O)N(C)CC(=O)N(C)[C@H]2C/C=C\CCN(C2=O)[C@@H](Cc2ccc(C(F)(F)F)cc2)C(=O)N(C)CC(=O)N[C@@H](CCc2cc(F)c(C(F)(F)F)c(F)c2)C(=O)N2C[C@H](OCC)C[C@H]2C(=O)NC2(CCC2)C(=O)N(C)[C@@H](C2CCCC2)C(=O)N(C)[C@H](C(=O)N(C)CC)CC(=O)N1C [PP1569] | A (a compound having 10 or more and less than 20 is denoted as A) | B (a compound having 3 or more and less than 10 is denoted as B) |
| 2.6 | CC[C@H](C)[C@@H]1NC(=O)[C@H](CC2CC2)N(C)C(=O)C[C@@H](C(=O)N(C)CC)N(C)C(=O)[C@H](C2CCCC2)N(C)C(=O)C2(CC(C)(C)C2)NC(=O)[C@@H]2C[C@@H](F)CN2C(=O)[C@H](CCc2cc(F)c(C(F)(F)F)c(F)c2)NC(=O)CN(C)C(=O)[C@H](Cc2ccc(C(F)(F)F)cc2)N2CC/C=C\C[C@@H](C2=O)N(C)C(=O)CN(C)C1=O [PP1570] | AA (a compound having 20 or more is denoted as AA) | A (a compound having 10 or more and less than 20 is denoted as A) |
| 6.8 | CC[C@H](C)[C@@H]1NC(=O)[C@H](CC2CC2)N(C)C(=O)C[C@@H](C(=O)N(CC)CC)N(C)C(=O)[C@H](C2CCCC2)N(C)C(=O)C2(CC(C)(C)C2)NC(=O)[C@@H]2C[C@@H](F)CN2C(=O)[C@H](CCc2cc(F)c(C(F)(F)F)c(F)c2)NC(=O)CN(C)C(=O)[C@H](Cc2ccc(C(F)(F)F)cc2)N2CC/C=C\C[C@@H](C2=O)N(C)C(=O)CN(C)C1=O [PP1571] | A (a compound having 10 or more and less than 20 is denoted as A) | A (a compound having 10 or more and less than 20 is denoted as A) |
| 3.6 | CCCOC[C@H]1C(=O)N[C@@H]([C@@H](C)CC)C(=O)N(C)CC(=O)N(C)[C@H]2C/C=C\CCN(C2=O)[C@@H](Cc2ccc(C(F)(F)F)cc2)C(=O)N(C)CC(=O)N[C@@H](CCc2cc(F)c(C(F)(F)F)c(F)c2)C(=O)N2C[C@H](OCC)C[C@H]2C(=O)NC2(CC(C)(C)C2)C(=O)N(C)[C@@H](C2CCCC2)C(=O)N(C)[C@H](C(=O)N(C)CC)CC(=O)N1C [PP1572] | A (a compound having 10 or more and less than 20 is denoted as A) | A (a compound having 10 or more and less than 20 is denoted as A) |
| 5.2 | CCO[C@@H]1C[C@H]2C(=O)NC3(CCC3)C(=O)N(C)[C@@H](C3CCCC3)C(=O)N(C)[C@H](C(=O)N(C)CC)CC(=O)N(C)[C@@H](CC3CCCC3)C(=O)N[C@@H]([C@@H](C)CC)C(=O)N(C)CC(=O)N(C)[C@H]3C/C=C\CCN(C3=O)[C@@H](Cc3ccc(C(F)(F)F)cc3)C(=O)N(C)CC(=O)N[C@@H](CCc3ccc(C(F)(F)F)c(OC)c3)C(=O)N2C1 [PP1573] | A (a compound having 10 or more and less than 20 is denoted as A) | A (a compound having 10 or more and less than 20 is denoted as A) |
| 11.1 | CCCOC[C@H]1C(=O)N[C@@H]([C@@H](C)CC)C(=O)N(C)CC(=O)N(C)[C@H]2C/C=C\CCN(C2=O)[C@@H](Cc2ccc(C(F)(F)F)cc2)C(=O)N(C)CC(=O)N[C@@H](CCc2cc(F)c(C(F)(F)F)c(F)c2)C(=O)N2C[C@H](OCC)C[C@H]2C(=O)NC2(CC(C)(C)C2)C(=O)N(C)[C@@H](C2CCCC2)C(=O)N(C)[C@H](C(=O)N(CC)CC)CC(=O)N1C [PP1575] | B (a compound having 3 or more and less than 10 is denoted as B) | B (a compound having 3 or more and less than 10 is denoted as B) |
| 7.6 | CCCC[C@H]1C(=O)N[C@@H]([C@@H](C)CC)C(=O)N(C)CC(=O)N(C)[C@H]2C/C=C\CCN(C2=O)[C@@H](Cc2ccc(C(F)(F)F)cc2)C(=O)N(C)CC(=O)N[C@@H](CCc2cc(F)c(C(F)(F)F)c(F)c2)C(=O)N2C[C@H](OCC)C[C@H]2C(=O)NC2(CCC2)C(=O)N(C)[C@@H](C2CCCC2)C(=O)N(C)[C@H](C(=O)N(CC)CC)CC(=O)N1C [PP1576] | AA (a compound having 20 or more is denoted as AA) | A (a compound having 10 or more and less than 20 is denoted as A) |
| 6.7 | CCCOC[C@H]1C(=O)N[C@@H]([C@@H](C)CC)C(=O)N(C)CC(=O)N(C)[C@H]2C/C=C\CCN(C2=O)[C@@H](Cc2ccc(C)cc2)C(=O)N(C)CC(=O)N[C@@H](CCc2cc(F)c(C(F)(F)F)c(F)c2)C(=O)N2C[C@H](OCC)C[C@H]2C(=O)NC2(CC(C)(C)C2)C(=O)N(C)[C@@H](C2CCCC2)C(=O)N(C)[C@H](C(=O)N(C)CC)CC(=O)N1C [PP1577] | B (a compound having 3 or more and less than 10 is denoted as B) | B (a compound having 3 or more and less than 10 is denoted as B) |
| 12.6 | CCCOC[C@H]1C(=O)N[C@@H]([C@@H](C)CC)C(=O)N(C)CC(=O)N(C)[C@H]2C/C=C\CCN(C2=O)[C@@H](Cc2ccc(C)cc2)C(=O)N(C)CC(=O)N[C@@H](CCc2cc(F)c(C(F)(F)F)c(F)c2)C(=O)N2C[C@H](OCC)C[C@H]2C(=O)NC2(CC(C)(C)C2)C(=O)N(C)[C@@H](C2CCCC2)C(=O)N(C)[C@H](C(=O)N(CC)CC)CC(=O)N1C [PP1578] | A (a compound having 10 or more and less than 20 is denoted as A) | A (a compound having 10 or more and less than 20 is denoted as A) |
| 4.1 | CCO[C@@H]1C[C@H]2C(=O)NC3(CC(C)(C)C3)C(=O)N(C)[C@@H](C3CCCC3)C(=O)N(C)[C@H](C(=O)N(C)CC)CC(=O)N(C)[C@@H](CC)C(=O)N[C@@H]([C@@H](C)CC)C(=O)N(C)CC(=O)N(C)[C@H]3C/C=C\CCN(C3=O)[C@@H](Cc3ccc(C(F)(F)F)cc3)C(=O)N(C)CC(=O)N[C@@H](CCc3cc(F)c(C(F)(F)F)c(F)c3)C(=O)N2C1 [PP1579] | A (a compound having 10 or more and less than 20 is denoted as A) | B (a compound having 3 or more and less than 10 is denoted as B) |
| 9.7 | CCO[C@@H]1C[C@H]2C(=O)NC3(CC(C)(C)C3)C(=O)N(C)[C@@H](C3CCCC3)C(=O)N(C)[C@H](C(=O)N(CC)CC)CC(=O)N(C)[C@@H](CC)C(=O)N[C@@H]([C@@H](C)CC)C(=O)N(C)CC(=O)N(C)[C@H]3C/C=C\CCN(C3=O)[C@@H](Cc3ccc(C(F)(F)F)cc3)C(=O)N(C)CC(=O)N[C@@H](CCc3cc(F)c(C(F)(F)F)c(F)c3)C(=O)N2C1 [PP1580] | A (a compound having 10 or more and less than 20 is denoted as A) | A (a compound having 10 or more and less than 20 is denoted as A) |
| 66.4 | CCO[C@@H]1C[C@H]2C(=O)NC3(CCC3)C(=O)N(C)[C@@H](C3CCCC3)C(=O)N(C)[C@H](C3CCCCC3)CC(=O)N(C)[C@@H](COC)C(=O)N[C@@H]([C@@H](C)CC)C(=O)N(C)CC(=O)N(C)[C@H]3C/C=C\CCN(C3=O)[C@@H](Cc3ccc(C(F)(F)F)cc3)C(=O)N(C)CC(=O)N[C@@H](CCc3cc(F)c(C(F)(F)F)c(F)c3)C(=O)N2C1 [PP1584] | B (a compound having 3 or more and less than 10 is denoted as B) | B (a compound having 3 or more and less than 10 is denoted as B) |
| 24.2 | CCO[C@@H]1C[C@H]2C(=O)NC3(CC(C)(C)C3)C(=O)N(C)[C@@H](C3CCCC3)C(=O)N(C)[C@H](C(C)C)CC(=O)N(C)[C@@H](CC)C(=O)N[C@@H]([C@@H](C)CC)C(=O)N(C)CC(=O)N(C)[C@H]3C/C=C\CCN(C3=O)[C@@H](Cc3ccc(C(F)(F)F)cc3)C(=O)N(C)CC(=O)N[C@@H](CCc3cc(F)c(C(F)(F)F)c(F)c3)C(=O)N2C1 [PP1588] | B (a compound having 3 or more and less than 10 is denoted as B) | B (a compound having 3 or more and less than 10 is denoted as B) |
